This is an account of results in patent US7816522B2, “Triazolone derivatives” (Eisai Co., Ltd., priority 2006, dated 2010).

Molecules are shown by their SMILES. Structures can show the parent of a compound that is named as a salt.

The IC50 is the concentration that inhibits the measured activity by half.

This test concerns the target T1, human clotting factor VIIa (Homo sapiens, UniProt P08709).
T1 construct: a human clotting factor VIIa (hereinafter, “Factor VIIa”) purified sample; purchased Enzyme Research Laboratories HFVIIa
The experiment in a line: Inhibitory activity against clotting factor VIIa (chromogenic substrate Spectrozyme FVIIa, TF/Factor VIIa enzyme solution). The format is biochemical. As to conditions: human Factor VIIa 5 nmol/L with human TF 10 nmol/L, room temperature 40 minutes, 405 nm. Summed up: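 Human Factor VIIa (5 nmol/L) with human TF (10 nmol/L) in Tris-BSA buffer pH 7.4 containing 15 mmol/L CaCl2 and cephalin, with Spectrozyme FVIIa substrate. Reaction 40 min at room temperature; 4-nitroanilide read at 405 nm. IC50 by non-linear regression over 100 μmol/L–0.1 nmol/L.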

T1 sequence (P08709 213-466 limits assumed): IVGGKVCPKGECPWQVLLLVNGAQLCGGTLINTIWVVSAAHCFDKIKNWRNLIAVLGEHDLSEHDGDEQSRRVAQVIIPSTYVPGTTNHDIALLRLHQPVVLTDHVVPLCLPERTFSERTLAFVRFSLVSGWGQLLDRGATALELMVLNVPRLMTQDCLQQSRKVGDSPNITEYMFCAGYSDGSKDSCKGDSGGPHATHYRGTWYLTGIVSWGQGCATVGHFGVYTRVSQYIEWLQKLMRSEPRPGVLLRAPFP
T1 sequence (P08709 61-212 limits assumed): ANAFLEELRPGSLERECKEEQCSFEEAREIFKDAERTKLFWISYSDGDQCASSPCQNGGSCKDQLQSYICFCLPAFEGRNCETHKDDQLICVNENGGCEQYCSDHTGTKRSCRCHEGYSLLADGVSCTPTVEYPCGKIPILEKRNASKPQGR
T1 sequence (P13726 33-295 partner): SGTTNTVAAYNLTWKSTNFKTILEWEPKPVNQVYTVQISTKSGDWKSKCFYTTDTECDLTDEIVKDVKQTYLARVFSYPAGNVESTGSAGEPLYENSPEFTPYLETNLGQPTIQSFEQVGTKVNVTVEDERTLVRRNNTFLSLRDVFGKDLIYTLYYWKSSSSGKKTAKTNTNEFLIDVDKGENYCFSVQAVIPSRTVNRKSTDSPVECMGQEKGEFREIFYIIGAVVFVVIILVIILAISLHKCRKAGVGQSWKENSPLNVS

`COc1cc(C(Nc2ccc(C(=N)N)cc2)c2nn(-c3nc[nH]c3C(=O)O)c(=O)[nH]2)c(F)c2c1OCCO2` (single isomer, unassigned) [Example 191, 5-{3-[(R) or (S)-(4-Carbamimidoylphenylamino)-(5-fluoro-8-methoxy-2,3-dihydrobenzo[1,4]dioxin-6-yl)methyl]-5-oxo-4,5-dihydro-[1,2,4]triazol-1-yl}-3H-imidazole-4-carboxylic acid trifluoroacetate]: the IC50 stood at 9.3 nM.

With `COc1cc(OCCCO)c(F)c(C(Nc2ccc(C(=N)N)cc2)c2nn(-c3[nH]ncc3C(=O)O)c(=O)[nH]2)c1` (single isomer, unassigned) [Example 198, (R) or (S)-5-(3-{(4-Carbamimidoylphenylamino)-[2-fluoro-3-(3-hydroxypropoxy)-5-methoxyphenyl]methyl}-5-oxo-4,5-dihydro-[1,2,4]triazol-1-yl)-1H-pyrazole-4-carboxylic acid acetate], half-maximal inhibition (IC50) was put at 19.6 nM.

`COc1cc(COCCO)c(F)c(C(Nc2ccc(C(=N)N)cc2)c2nn(-c3ncccn3)c(=O)[nH]2)c1` (single isomer, unassigned) [Example 216, 4-{[[2-Fluoro-3-(2-hydroxyethoxymethyl)-5-methoxyphenyl]-(5-oxo-1-pyrimidin-2-yl-4,5-dihydro-1H-[1,2,4]triazol-3-yl)methyl]amino}benzamidine] registered a half-inhibitory concentration (IC50) of 13.4 nM.

For the compound `COc1cc(CF)cc(C(Nc2ccc(C(=N)N)cc2)c2nn(-c3ncccn3)c(=O)[nH]2)c1` (centres unmarked) [Example 11, 4-{[(3-fluoromethyl-5-methoxyphenyl)-(5-oxo-1-pyrimidin-2-yl-4,5-dihydro-1H-[1,2,4]triazol-3-yl)methyl]amino}benzamidine acetate], the IC50 turned out to be 29.7 nM.

`COc1ccccc1-n1nc(C(Nc2ccc(C(=N)N)cc2)c2cc(C)cc(OC)c2F)[nH]c1=O` (centres unmarked) [Example 14, 4-({(2-fluoro-3-methoxy-5-methylphenyl)-[1-(2-methoxyphenyl)-5-oxo-4,5-dihydro-1H-[1,2,4]triazol-3-yl]methyl}amino)benzamidine trifluoroacetate] came in with a half-inhibitory concentration (IC50) of 5.9 nM.

`COc1cc(C(Nc2ccc(C(=N)N)cc2)c2nn(-c3ncccn3)c(=O)[nH]2)cc(CO)c1OC` (centres unmarked) [Example 23, 4-{[(5-hydroxymethyl-3,4-dimethoxyphenyl)-(5-oxo-1-pyrimidin-2-yl-4,5-dihydro-1H-[1,2,4]triazol-3-yl)methyl]amino}benzamidine acetate] had a half-maximal inhibitory concentration (IC50) of 23.9 nM. Compared with the last compound, the IC50 is about 4.1-fold higher.

`COc1cc(C(Nc2ccc(C(=N)N)cc2)c2nn(-c3ncccn3)c(=O)[nH]2)cc(C(C)O)c1OC` (centres unmarked) [Example 25, 4-({[3-(1-hydroxyethyl)-4,5-dimethoxyphenyl]-(5-oxo-1-pyrimidin-2-yl-4,5-dihydro-1H-[1,2,4]triazol-3-yl)methyl}amino)benzamidine acetate] came in with a 50% inhibitory concentration (IC50) of 15.1 nM. Compared with the last compound, the IC50 is about 1.6-fold lower.

As for `COc1cc(OCCF)c(F)c(C(Nc2ccc(C(=N)N)cc2)c2nn(-c3cccc(N)n3)c(=O)[nH]2)c1` (centres unmarked) [Example 51, 4-({[1-(6-aminopyridin-2-yl)-5-oxo-4,5-dihydro-1H-[1,2,4]triazol-3-yl]-[2-fluoro-3-(2-fluoroethoxy)-5-methoxyphenyl]methyl}amino)benzamidine trifluoroacetate], the midpoint of inhibition, the IC50, lay at 5.1 nM.

`COc1cc(C(Nc2ccc(C(=N)N)cc2)c2nn(-c3ncccc3N)c(=O)[nH]2)cc2c1OCOC2` (centres unmarked) [Example 57, 4-({[1-(3-aminopyridin-2-yl)-5-oxo-4,5-dihydro-1H-[1,2,4]triazol-3-yl]-(8-methoxy-4H-benzo[1,3]dioxin-6-yl)methyl}amino)benzamidine acetate] registered a 50% inhibitory concentration (IC50) of 8.9 nM.

The compound `CCc1cc(OCC#N)cc(C(Nc2ccc(C(=N)N)cc2)c2nn(-c3ncccn3)c(=O)[nH]2)c1` (centres unmarked) [Example 77, 4-{[(3-cyanomethoxy-5-ethylphenyl)-(5-oxo-1-pyrimidin-2-yl-4,5-dihydro-1H-[1,2,4]triazol-3-yl)methyl]amino}benzamidine acetate] showed an IC50 of 8.8 nM.

In turn, `CCOc1cc(COC)cc(C(Nc2ccc(C(=N)N)cc2)c2nn(-c3ncccn3)c(=O)[nH]2)c1` (centres unmarked) [Example 83, 4-{[(3-ethoxy-5-methoxymethylphenyl)-(5-oxo-1-pyrimidin-2-yl-4,5-dihydro-1H-[1,2,4]triazol-3-yl)methyl]amino}benzamidine acetate] came in with an IC50 of 24.8 nM.

Regarding `CCOc1cc(CF)cc(C(Nc2ccc(C(=N)N)cc2)c2nn(-c3ncccn3)c(=O)[nH]2)c1` (centres unmarked) [Example 84, 4-{[(3-ethoxy-5-fluoromethylphenyl)-(5-oxo-1-pyrimidin-2-yl-4,5-dihydro-1H-[1,2,4]triazol-3-yl)methyl]amino}benzamidine acetate], the IC50 is 16.9 nM.

Turning to `COc1cc(C(Nc2ccc(C(=N)N)cc2)c2nn(-c3ncccn3)c(=O)[nH]2)cc(OC)c1OC` (centres unmarked) [Example 86, 4-{[(5-oxo-1-pyrimidin-2-yl-4,5-dihydro-1H-[1,2,4]triazol-3-yl)-(3,4,5-trimethoxyphenyl)methyl]amino}benzamidine acetate], half-maximal inhibition (IC50) was put at 51.7 nM. This IC50 is about 3.1-fold higher than that of the compound before.

With `COCCOc1c(OC)cc(C(Nc2ccc(C(=N)N)cc2)c2nn(-c3ccccc3OC)c(=O)[nH]2)cc1OC` (centres unmarked) [Example 87, 4-({[3,5-dimethoxy-4-(2-methoxyethoxy)phenyl]-[1-(2-methoxyphenyl)-5-oxo-4,5-dihydro-1H-[1,2,4]triazol-3-yl]methyl}amino)benzamidine acetate], the IC50 was determined as 4.2 nM.

Compound `CCOc1cccc(C(Nc2ccc(C(=N)N)cc2)c2nn(-c3ncccn3)c(=O)[nH]2)c1` (centres unmarked) [Example 90, 4-{[(3-ethoxyphenyl)-(5-oxo-1-pyrimidin-2-yl-4,5-dihydro-1H-[1,2,4]triazol-3-yl)methyl]amino}benzamidine acetate] registered an IC50 of 66.6 nM.

In turn, `COc1ccccc1-n1nc(C(Nc2ccc(C(=N)N)cc2)c2cc(C)cc(OCCF)c2F)[nH]c1=O` (centres unmarked) [Example 91, 4-({[2-fluoro-3-(2-fluoroethoxy)-5-methylphenyl]-[1-(2-methoxyphenyl)-5-oxo-4,5-dihydro-1H-[1,2,4]triazol-3-yl]methyl}amino)benzamidine trifluoroacetate] registered an IC50 of 6.4 nM.

`COc1cc(C(Nc2ccc(C(=N)N)cc2)c2nn(-c3ccccc3C(N)=O)c(=O)[nH]2)ccc1OCC(=O)N(C)C` (centres unmarked) [Example 105, 2-{3-[(4-carbamimidoyl-phenylamino)-(4-dimethylcarbamoylmethoxy-3-methoxyphenyl)methyl]-5-oxo-4,5-dihydro-1H-[1,2,4]triazol-1-yl}benzamide trifluoroacetate] came in with a half-inhibitory concentration (IC50) of 31.7 nM.

Turning to `COc1cc(F)c(C(Nc2ccc(C(=N)N)cc2)c2nn(-c3ccccc3N)c(=O)[nH]2)cc1OC` (centres unmarked) [Example 107, 4-({[1-(2-aminophenyl)-5-oxo-4,5-dihydro-1H-[1,2,4]triazol-3-yl]-(2-fluoro-4,5-dimethoxyphenyl)methyl}amino)benzamidine trifluoroacetate], the 50% inhibitory concentration (IC50) was determined as 4.3 nM.

Compound `COc1ccccc1-n1nc(C(Nc2ccc(C(=N)N)cc2)c2cc(C)c(OC)c(C)c2)[nH]c1=O` (centres unmarked) [Example 112, 4-({(4-methoxy-3,5-dimethylphenyl)-[1-(2-methoxyphenyl)-5-oxo-4,5-dihydro-1H-[1,2,4]triazol-3-yl]methyl}amino)benzamidine acetate] displayed an IC50 of 7.2 nM.

The compound `CCOc1cc(C(Nc2ccc(C(=N)N)cc2)c2nn(-c3ncccn3)c(=O)[nH]2)ccc1OCC#N` (centres unmarked) [Example 114, 4-{[(4-cyanomethoxy-3-ethoxyphenyl)-(5-oxo-1-pyrimidin-2-yl-4,5-dihydro-1H-[1,2,4]triazol-3-yl)methyl]amino}benzamidine trifluoroacetate] registered an IC50 of 22.8 nM. This IC50 lies about 3.2-fold higher than the previous one.

In turn, `COc1cc(F)c(C(Nc2ccc(C(=N)N)cc2)c2nn(-c3ncccc3OC)c(=O)[nH]2)cc1OC` (centres unmarked) [Example 124, 4-({(2-fluoro-4,5-dimethoxyphenyl)-[1-(3-methoxypyridin-2-yl)-5-oxo-4,5-dihydro-1H-[1,2,4]triazol-3-yl]methyl}amino)benzamidine acetate] gave an IC50 of 10 nM. Against the preceding compound, the IC50 is about 2.3-fold lower.

In turn, `COc1cc(F)c(C(Nc2ccc(C(=N)N)cc2)c2nn(-c3ncccc3F)c(=O)[nH]2)cc1OC` (centres unmarked) [Example 125, 4-({(2-fluoro-4,5-dimethoxyphenyl)-[1-(3-fluoropyridin-2-yl)-5-oxo-4,5-dihydro-1H-[1,2,4]triazol-3-yl]methyl}amino)benzamidine acetate] showed an IC50 of 10.3 nM.

The compound `CCOc1cc(C(Nc2ccc(C(=N)N)cc2)c2nn(-c3ncccc3OC)c(=O)[nH]2)ccc1OCC(=O)NC` (centres unmarked) [Example 126, 2-(4-{(4-carbamimidoylphenylamino)-[1-(3-methoxypyridin-2-yl)-5-oxo-4,5-dihydro-1H-[1,2,4]triazol-3-yl]methyl}-2-ethoxyphenoxy)-N-methyl-acetamide acetate] gave an IC50 of 10.9 nM.

In turn, `CCOc1cc(C(Nc2ccc(C(=N)N)cc2)c2nn(-c3ncccc3C)c(=O)[nH]2)ccc1OCC(=O)NC` (centres unmarked) [Example 127, 2-(4-{(4-carbamimidoylphenylamino)-[1-(3-methylpyridin-2-yl)-5-oxo-4,5-dihydro-1H-[1,2,4]triazol-3-yl]methyl}-2-ethoxyphenoxy)-N-methylacetamide acetate] gave an IC50 of 9.3 nM.

On to `CCOc1cc(C(Nc2ccc(C(=N)N)cc2)c2nn(-c3ncccc3C)c(=O)[nH]2)ccc1OCCOC` (centres unmarked) [Example 128, 4-({[3-ethoxy-4-(2-methoxyethoxy)phenyl]-[1-(3-methylpyridin-2-yl)-5-oxo-4,5-dihydro-1H-[1,2,4]triazol-3-yl]methyl}amino)benzamidine acetate], for which half-maximal inhibition (IC50) required 9.9 nM.

Regarding `COc1cc(F)c(C(Nc2ccc(C(=N)N)cc2)c2nn(-c3ncccc3Br)c(=O)[nH]2)cc1OC` (centres unmarked) [Example 134, 4-({[1-(3-bromopyridin-2-yl)-5-oxo-4,5-dihydro-1H-[1,2,4]triazol-3-yl]-(2-fluoro-4,5-dimethoxyphenyl)methyl}amino)benzamidine acetate], the IC50 stood at 11.7 nM. This IC50 and that of the compound before are within 1.5-fold of each other.
